Species: Rattus norvegicus
Experiment: DrugMatrix - Regimen: Daily Repeat
Assay type: toxicity, organism-based, Sprague-Dawley
Design: regimen Daily Repeat, gender Male, age 6-8 weeks
Conditions: in vivo, po, 0 mg/kg, route oral GAVAGE, dose level Control, vehicle 100 % WATER; for ABSOLUTE BASOPHIL / ABSOLUTE EOSINOPHIL / ABSOLUTE LYMPHOCYTE / ABSOLUTE MONOCYTE / ABSOLUTE SEGMENTED NEUTROPHIL / BASOPHIL / EOSINOPHIL / ERYTHROCYTE COUNT / HEMATOCRIT / HEMOGLOBIN / LEUKOCYTE COUNT / LYMPHOCYTE / MEAN CORPUSCULAR HEMOGLOBIN / MEAN CORPUSCULAR VOLUME / MONOCYTE / NEUTROPHIL / NUCLEATED RED BLOOD CELLS / PLATELET COUNT: tissue Blood; for ALANINE AMINOTRANSFERASE / ALBUMIN / ALKALINE PHOSPHATASE / ASPARTATE AMINOTRANSFERASE / BLOOD UREA NITROGEN / CARBON DIOXIDE / CHLORIDE / CHOLESTEROL / CREATINE PHOSPHOKINASE / CREATININE / GLUCOSE / LACTATE DEHYDROGENASE / LIPASE / PHOSPHORUS / POTASSIUM / SODIUM / TOTAL BILIRUBIN / TOTAL PROTEIN / URIC ACID: tissue Plasma

CCCCCCCCCCCCCCCC[n+]1ccccc1.[Br-]
ABSOLUTE BASOPHIL (72 h, time 3 day): 0 CELLS/uL
ABSOLUTE EOSINOPHIL (72 h, time 3 day): 58.83 CELLS/uL
ABSOLUTE LYMPHOCYTE (72 h, time 3 day): 11823.5 CELLS/uL
ABSOLUTE MONOCYTE (72 h, time 3 day): 169 CELLS/uL
ABSOLUTE SEGMENTED NEUTROPHIL (72 h, time 3 day): 815.33 CELLS/uL
BASOPHIL (72 h, time 3 day): 0%
EOSINOPHIL (72 h, time 3 day): 0.5%
ERYTHROCYTE COUNT (72 h, time 3 day): 5.52 x10E6/uL
HEMATOCRIT (72 h, time 3 day): 35.77%
HEMOGLOBIN (72 h, time 3 day): 14.28 G/DL
LEUKOCYTE COUNT (72 h, time 3 day): 12.87 x10E3/uL
LYMPHOCYTE (72 h, time 3 day): 91.67%
MEAN CORPUSCULAR HEMOGLOBIN (72 h, time 3 day): 25.92 pg
MEAN CORPUSCULAR VOLUME (72 h, time 3 day): 64.85 fL
MONOCYTE (72 h, time 3 day): 1.33%
NEUTROPHIL (72 h, time 3 day): 6.5%
NUCLEATED RED BLOOD CELLS (72 h, time 3 day): 0 /100WBC
PLATELET COUNT (72 h, time 3 day): 1246.17 x10E3/uL
ALANINE AMINOTRANSFERASE (72 h, time 3 day): 66 u/L
ALBUMIN (72 h, time 3 day): 4.25 G/DL
ALKALINE PHOSPHATASE (72 h, time 3 day): 416 u/L
ASPARTATE AMINOTRANSFERASE (72 h, time 3 day): 106.17 u/L
BLOOD UREA NITROGEN (72 h, time 3 day): 12.67 mg/dL
CARBON DIOXIDE (72 h, time 3 day): 31.83 mmol/L
CHLORIDE (72 h, time 3 day): 102.5 MEQ/L
CHOLESTEROL (72 h, time 3 day): 69 mg/dL
CREATINE PHOSPHOKINASE (72 h, time 3 day): 601.83 u/L
CREATININE (72 h, time 3 day): 0.18 mg/dL
GLUCOSE (72 h, time 3 day): 154.5 mg/dL
LACTATE DEHYDROGENASE (72 h, time 3 day): 301.83 u/L
LIPASE (72 h, time 3 day): 11.17 u/L
PHOSPHORUS (72 h, time 3 day): 12.08 mg/dL
POTASSIUM (72 h, time 3 day): 6.12 MEQ/L
SODIUM (72 h, time 3 day): 145.2 MEQ/L
TOTAL BILIRUBIN (72 h, time 3 day): 0.17 mg/dL
TOTAL PROTEIN (72 h, time 3 day): 6.1 G/DL
URIC ACID (72 h, time 3 day): 1.57 mg/dL
ABSOLUTE BASOPHIL (120 h, time 5 day): 0 CELLS/uL
ABSOLUTE EOSINOPHIL (120 h, time 5 day): 19.33 CELLS/uL
ABSOLUTE LYMPHOCYTE (120 h, time 5 day): 12577.83 CELLS/uL
ABSOLUTE MONOCYTE (120 h, time 5 day): 106.33 CELLS/uL
ABSOLUTE SEGMENTED NEUTROPHIL (120 h, time 5 day): 896.5 CELLS/uL
BASOPHIL (120 h, time 5 day): 0%
EOSINOPHIL (120 h, time 5 day): 0.17%
ERYTHROCYTE COUNT (120 h, time 5 day): 5.84 x10E6/uL
HEMATOCRIT (120 h, time 5 day): 36.88%
HEMOGLOBIN (120 h, time 5 day): 14.48 G/DL
LEUKOCYTE COUNT (120 h, time 5 day): 13.6 x10E3/uL
LYMPHOCYTE (120 h, time 5 day): 92.17%
MEAN CORPUSCULAR HEMOGLOBIN (120 h, time 5 day): 24.85 pg
MEAN CORPUSCULAR VOLUME (120 h, time 5 day): 63.23 fL
MONOCYTE (120 h, time 5 day): 0.83%
NEUTROPHIL (120 h, time 5 day): 6.83%
NUCLEATED RED BLOOD CELLS (120 h, time 5 day): 0 /100WBC
PLATELET COUNT (120 h, time 5 day): 1223.5 x10E3/uL
ALANINE AMINOTRANSFERASE (120 h, time 5 day): 55.33 u/L
ALBUMIN (120 h, time 5 day): 4.08 G/DL
ALKALINE PHOSPHATASE (120 h, time 5 day): 355.5 u/L
ASPARTATE AMINOTRANSFERASE (120 h, time 5 day): 87.67 u/L
BLOOD UREA NITROGEN (120 h, time 5 day): 15.33 mg/dL
CARBON DIOXIDE (120 h, time 5 day): 33.83 mmol/L
CHLORIDE (120 h, time 5 day): 99.67 MEQ/L
CHOLESTEROL (120 h, time 5 day): 72.17 mg/dL
CREATINE PHOSPHOKINASE (120 h, time 5 day): 268.33 u/L
CREATININE (120 h, time 5 day): 0.15 mg/dL
GLUCOSE (120 h, time 5 day): 152.5 mg/dL
LACTATE DEHYDROGENASE (120 h, time 5 day): 212.67 u/L
LIPASE (120 h, time 5 day): 10.83 u/L
PHOSPHORUS (120 h, time 5 day): 11.65 mg/dL
POTASSIUM (120 h, time 5 day): 6.73 MEQ/L
SODIUM (120 h, time 5 day): 142.43 MEQ/L
TOTAL BILIRUBIN (120 h, time 5 day): 0.23 mg/dL
TOTAL PROTEIN (120 h, time 5 day): 6.07 G/DL
URIC ACID (120 h, time 5 day): 1.7 mg/dL

Reference: ChEMBL document CHEMBL3885881, “DrugMatrix”
